These results are taken from ChEMBL document CHEMBL1158710, “Cytotoxic flavonoids from Platymiscium floribundum” (J Nat Prod, 2005).

Values after ≈ are worked out from the molar mass of the structure shown.

Common to all, as to format: functional, cell-based
In one assay the test system is HCT-8. In words: Cytotoxicity against human HCT8 cells after 72 hrs by MTT assay. The settings on record: HCT-8, 72 h. For orientation: Tetrazolium dyes change colour on reduction, which living cells bring about.
The subject of a further assay is HL-60. Briefly: Cytotoxicity against human HL60 cells after 72 hrs by MTT assay. As to conditions: HL-60, 72 h.
Another assay has as its system B16. In words: Cytotoxicity against mouse B16 cells after 72 hrs by MTT assay. As to conditions: B16, 72 h.
A further assay deals with MCF7. Briefly: Cytotoxicity against human MCF7 cells after 72 hrs by MTT assay. As to conditions: MCF7, 72 h.
A further assay deals with CCRF-CEM. In words: Cytotoxicity against human CEM cells after 72 hrs by MTT assay.

Turning to `COc1ccc2c(c1)OC1c3cc(OC)c(OC)cc3OCC21` (stereo unspecified), the IC50 with HCT-8 turned out to be 0.6 µg/mL (≈ 1.91 µM); in the assay on HL-60, 0.1 µg/mL (≈ 0.318 µM); in the assay on B16, 2.9 µg/mL (≈ 9.23 µM); in the assay with MCF7, 0.7 µg/mL (≈ 2.23 µM); in the assay on CCRF-CEM it was 0.6 µg/mL (≈ 1.91 µM).

For `COc1ccc2c(c1)O[C@H]1c3ccc(OC)cc3OC[C@@H]21` [HOMOPTEROCARPIN], the IC50 with HCT-8 was 6.4 µg/mL (≈ 22.5 µM); in the assay with HL-60, 3.9 µg/mL (≈ 13.7 µM); with B16, 5.2 µg/mL (≈ 18.3 µM); in the assay on MCF7, 18.5 µg/mL (≈ 65.1 µM); with CCRF-CEM it was 5.5 µg/mL (≈ 19.3 µM).

`O=C1C[C@@H](c2ccc(O)cc2)Oc2cc(O)ccc21` [LIQUIRTIGENIN]: the 50% inhibitory concentration (IC50) is 19.5 µg/mL (≈ 76.1 µM) in the assay with HCT-8; 22.5 µg/mL (≈ 87.8 µM) in the assay on HL-60; 5 µg/mL (≈ 19.5 µM) in the assay on B16; > 25 µg/mL in the assay with MCF7; > 25 µg/mL in the assay with CCRF-CEM.

The compound `COc1cccc2c1C(=O)c1c(O)c3c(c(O)c1C2=O)C[C@@](O)(C(=O)CO)C[C@@H]3O[C@H]1C[C@H](N)[C@H](O)[C@H](C)O1` [DOXORUBICIN] yielded an IC50 in the assay on MCF7 of 0.2 µg/mL (≈ 0.368 µM).

With `COc1ccc2c(c1)OC1c3ccc(O)c(O)c3OCC21` (stereo unspecified) [VESTICARPAN], the IC50 in the assay with HCT-8 amounted to 12.4 µg/mL (≈ 43.3 µM); in the assay with HL-60 it was 6.9 µg/mL (≈ 24.1 µM); in the assay with B16, 2.7 µg/mL (≈ 9.43 µM); in the assay on MCF7 it was 10 µg/mL (≈ 34.9 µM); in the assay with CCRF-CEM, 7.3 µg/mL (≈ 25.5 µM).

The IC50 is the point on the concentration scale where inhibition reaches its midpoint.
